Assays:
human VSM cells [1] = experiment: direct counting of trypsinized VSM cells by hemocytometer; format: cell-based; settings: 12 μM, 10% serum, FIG. 1c
Protocol: FIG. 1c. CDU (12 μM) or an equal volume of DMSO vehicle (as a control) was added concomitantly with 10% serum and the cells were counted by hemocytometer after trypsinization. Proliferation Assays. [^3H]thymidine incorporation assays were performed. To evaluate proliferation of suspension cells, cells were resuspended at 2×10^5 cells/mL in culture medium and the medium supplemented with the compound of interest or the corresponding vehicle. At the indicated times, cell density was estimated using light microscopy and a hemocytometer. To directly evaluate the proliferation of adherent cells, 2×10^4 cells were plated in a 35 mm culture dish and allowed to adhere overnight. The medium was then supplemented with the compound of interest or the corresponding vehicle. At the indicated times, the number of cells in the plate was calculated by subjecting the cells to trypsinization and the cell density quantitated by light microscopy using a hemocytometer.

[2] = tested on: human foreskin fibroblasts; experiment: [3H]thymidine incorporation, human foreskin fibroblasts; format: cell-based; settings: PDGF-BB stimulated, similar concentrations to VSM cells, FIG. 1d
Protocol: FIG. 1d. Human foreskin fibroblasts were treated similarly to VSM cells in FIG. 1a and [^3H]thymidine incorporation into DNA was assessed.

HL-60 cells = experiment: HL-60 cell proliferation (hemocytometer count); format: cell-based, human; settings: 12 μM, 24 and 48 h, FIG. 2
Protocol: Human promyelocytic HL-60 were incubated in serum-containing medium and CDU (12 μM) or DMSO vehicle was added at time zero. At 24 and 48 h after CDU addition the cells were counted using a hemocytometer. Error bars represent SD. Data shown are representative of two independent experiments. Cell Culture. Human aortic smooth muscle cells were obtained from Clonetics (San Diego Calif.) at passage 3 and were maintained in MCBD 131 media supplemented with 2.5% FBS, 5 mg/L bovine insulin, 2 ug/L human recombinant EGF, 1 ug/L human recombinant PDGF-BB (“PDGF” is platelet derived growth factor, which is composed of a dimer of two chains, the A chain and the B chain, “PDGF-BB is a 24.3 kD homodimer of two B chains), 100 u/ml of penicillin, 100 u/ml streptomycin, and 2.5 ug/ml amphotericin B. The cells were growth-arrested by placing them in quiescence medium containing MCDB 131 medium, 20 mM HEPES (pH 7.4), 5 mg/ml transferrin, 0.5 mg/ml BSA, 50 U/ml penicillin, 50 U/ml streptomycin, and 2.5 ug/ml amphotericin B. Quiescence medium was changed daily for 1-2 days before each experiment. HL-60 cells were obtained from ATCC or from D. Hyde (UC Davis). […] At the indicated times, the number of cells in the plate was calculated by subjecting the cells to trypsinization and the cell density quantitated by light microscopy using a hemocytometer.

Met-1 breast tumor cells = experiment: Met-1 breast tumor cell proliferation; format: cell-based; settings: up to 20 μM
human VSM cells [3] = experiment: LDH release into media; format: cell-based; settings: PDGF-BB or 10% serum, CDU 10 and 20 μM, FIG. 4b
Protocol: FIG. 4b. Human VSM cells were grown continuously in the presence of either 10% serum or PDGF-BB (30 ng/ml). Upon achieving confluency, the cells were incubated with CDU at the indicated concentrations and LDH release into the media was measured as described in Example 1. Evaluation of Cell Membrane Integrity and Toxicity. To evaluate the toxicity of compounds, as indicated by cellular trypan blue permeability, cells were plated in 35 mm dishes. After two days, the medium in the dish was replaced with fresh medium supplemented with the compound of interest or vehicle. At the indicated time post-treatment, the supernatant was removed and adherent cells were removed using trypsin. After dislodging the adherent cells, the cell suspension was pooled with the supernatant and centrifuged. The resulting cell pellet was resuspended and a trypan blue solution (0.4% in normal saline) was added to the aliquot. After incubating for approximately 5 minutes, the sample was evaluated by light microscopy. To evaluate lactate dehydrogenase (LDH) release, cells were harvested and plated onto 24 well plates and serum starved for one to two days. Test compounds were added and after 65 hours, media was removed for measurement of LDH activity. LDH activity was determined by NADH oxidation using Sigma Tox-7 in vitro toxicology kit and reported as the amount of LDH activity in the media.

A549 lung cancer cells = experiment: MTT assay A549; format: cell-based; settings: up to 40 μM
HT-29 colon cancer cells = experiment: MTT assay HT-29; format: cell-based; settings: up to 40 μM
[4] = tested on: HTB-30 breast cancer cells; experiment: MTT assay HTB-30; format: cell-based; settings: up to 40 μM
[5] = tested on: LnCap prostate cancer cells; experiment: MTT assay LnCap; format: cell-based; settings: up to 40 μM
ERK42/44 phosphorylation = experiment: Western blot phospho-MAPK in VSM cells; format: cell-based, human; settings: 10 μM, 4 h after PDGF-BB, FIG. 6
Protocol: Human VSM cells were grown to 80-90% confluence and serum-starved as in FIG. 1. Four hours after stimulation with PDGF-BB (30 ng/ml) in the presence or absence of CDU (10 μM), the cells were lysed and equal protein quantities were electrophoresed and immunoblotted with phospho-MAPK antibody. Data shown are representative of three independent experiments Western Blots. After treatment with appropriate compounds for the indicated times, cells were lysed, protein concentrations were determined by the Lowry method, and equal protein quantities were electrophoresed and Western blotted.

cyclin D1 = experiment: Western blot cyclin D1 in VSM cells; format: cell-based, human; settings: 10 μM, PDGF-BB, 6 to 18 h, vs DMSO vehicle, FIG. 7
Protocol: (§1) Human VSM cells were grown to 80-90% confluence and serum-starved as in FIG. 1. […] Data shown are representative of at least two independent experiments. Western Blots. After treatment with appropriate compounds for the indicated times, cells were lysed, protein concentrations were determined by the Lowry method, and equal protein quantities were electrophoresed and Western blotted.

cyclin E = experiment: Western blot cyclin E in VSM cells; format: cell-based, human; settings: 10 μM, PDGF-BB, 6 to 18 h, FIG. 7
Protocol: as §1

[6] = target: soluble epoxide hydrolase (sEH); settings: cited from earlier work

For `CCCCCCCCCCCCNC(=O)NC1CCCCC1` [CDU, 1-cyclohexyl-3-dodecyl urea], the “cell proliferation by direct counting of trypsinized cells” value (human VSM cells [1]) was “Inhibition of cell proliferation”, the “[3H]thymidine incorporation” value [2] was “inhibited” and the “proliferation of HL-60 cells” value (HL-60 cells) was “proliferated to a similar extent”. The “effect on Met-1 cells” value (Met-1 breast tumor cells) was “lack of effect”, the “LDH appearance in the media” value (human VSM cells [3]) was “unchanged” and the “toxicity, MTT assay” value (A549 lung cancer cells) was “no toxicity observed”. For the same compound, the “toxicity, MTT assay” value (HT-29 colon cancer cells) was “no toxicity observed”, the “toxicity, MTT assay” value [4] was “no toxicity observed” and the “toxicity, MTT assay” value [5] was “no toxicity observed”. For the same compound, the “PDGF-stimulated ERK42/44 phosphorylation” value (ERK42/44 phosphorylation) was “no change”, the “induction of cyclin D1 levels” value (cyclin D1) was “profoundly decreased induction” and the “effect on cyclin E levels” value (cyclin E) was “minimal effect”. The Ki [6] was 20 ± 2 nM.
